Test results taken from ChEMBL document CHEMBL1133498, “QSAR of 1,1'-(1,2-ethylenebisbenzyl)bis(4-substitutedpyridinium) dibromides as choline kinase inhibitors: a different approach for antiproliferative drug design” (Bioorg Med Chem Lett, 2000).

Test system: HT-29
Experiment: Compound was tested in vitro for antiproliferative activity against human HT-29 cell line
Assay type: functional, cell-based

Row | SMILES | IC50 [µM]
1 | Nc1cc[n+](Cc2ccc(CCc3ccc(C[n+]4ccc(N)cc4)cc3)cc2)cc1 | 4
2 | CN(C)c1cc[n+](Cc2ccc(CCc3ccc(C[n+]4ccc(N(C)C)cc4)cc3)cc2)cc1 | 2
3 | OCc1cc[n+](Cc2ccc(CCc3ccc(C[n+]4ccc(CO)cc4)cc3)cc2)cc1 | > 100
4 | O=C(O)c1cc[n+](Cc2ccc(CCc3ccc(C[n+]4ccc(C(=O)O)cc4)cc3)cc2)cc1 | > 1000
5 | N#Cc1cc[n+](Cc2ccc(CCc3ccc(C[n+]4ccc(C#N)cc4)cc3)cc2)cc1 | 200
6 | Cc1cc[n+](Cc2ccc(CCc3ccc(C[n+]4ccc(C)cc4)cc3)cc2)cc1 | 20
7 | C[N+]1(C)CCOC(O)(c2ccc(-c3ccc(C4(O)C[N+](C)(C)CCO4)cc3)cc2)C1 (stereo unspecified) [HEMICHOLINIUM-3] | 2500

Now those with a lower IC50, led by results:

Row | IC50 [µM] | SMILES
8 | 0.4 | c1cc(C[n+]2ccc(N3CCCCC3)cc2)ccc1CCc1ccc(C[n+]2ccc(N3CCCCC3)cc2)cc1
9 | 0.4 | c1cc(C[n+]2ccc(N3CCCCCC3)cc2)ccc1CCc1ccc(C[n+]2ccc(N3CCCCCC3)cc2)cc1
10 | 0.55 | C=CCN(CC=C)c1cc[n+](Cc2ccc(CCc3ccc(C[n+]4ccc(N(CC=C)CC=C)cc4)cc3)cc2)cc1
11 | 1 | c1cc(C[n+]2ccc(N3CCCC3)cc2)ccc1CCc1ccc(C[n+]2ccc(N3CCCC3)cc2)cc1
